According to PubChem BioAssay (NCI):
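1) Cells in 96-well plates. 2) Compound, 48 h, 5 concentrations. 3) Linear interpolation between surrounding doses. 4) Unreached endpoint = highest concentration. Abbreviation: GI50, concentration required for 50% inhibition of growth. At the TGI there is no net growth.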

Legend:
Assay in all cases: growth of human tumour cells (NCI), 48 h; in the data active means GI50 below about 0.43 µM; inactive means the rest
[1] = test system: 786-0 renal
[2] = test system: RXF 393 renal
[3] = test system: SF-268 CNS
[4] = test system: MDA-MB-231 breast
[5] = test system: NCI/ADR-RES ovarian
[6] = test system: CAKI-1 renal
[7] = test system: HOP-62 NSCLC
[8] = test system: HOP-92 NSCLC
[9] = test system: SK-MEL-5 melanoma
[10] = test system: OVCAR-5 ovarian
[11] = test system: SF-539 CNS
[12] = test system: SR leukemia
[13] = test system: SK-OV-3 ovarian
[14] = test system: HCT-116 colon
[15] = test system: T-47D breast
[16] = test system: HCC-2998 colon
[17] = test system: SK-MEL-28 melanoma
[18] = test system: HCT-15 colon
[19] = test system: A498 renal
[20] = test system: OVCAR-4 ovarian
[21] = test system: PC-3 prostate
[22] = test system: OVCAR-3 ovarian
[23] = test system: UACC-257 melanoma
[24] = test system: RPMI-8226 leukemia
[25] = test system: SF-295 CNS
[26] = test system: MCF7 breast
[27] = test system: UO-31 renal
[28] = test system: HL-60(TB) leukemia
[29] = test system: TK-10 renal
[30] = test system: OVCAR-8 ovarian
[31] = test system: HS 578T breast
[32] = test system: LOX IMVI melanoma
[33] = test system: MDA-MB-435
[34] = test system: M14 melanoma
[35] = test system: U251 CNS
[36] = test system: UACC-62 melanoma
[37] = test system: COLO 205 colon
[38] = test system: HT29 colon
[39] = test system: EKVX NSCLC
[40] = test system: NCI-H23 lung
[41] = test system: MALME-3M melanoma
[42] = test system: SW-620 colon
[43] = test system: K-562 leukemia
[44] = test system: SNB-75 CNS
[45] = test system: A549 NSCLC
[46] = test system: ACHN renal
[47] = test system: MOLT-4 leukemia
[48] = test system: NCI-H522 lung
[49] = test system: NCI-H226 lung
[50] = test system: NCI-H460 lung
[51] = test system: DU-145 prostate
[52] = test system: SN12C renal
[53] = test system: SNB-19 CNS
[54] = test system: IGROV1 ovarian
[55] = test system: BT-549 breast
[56] = test system: KM12 colon
[57] = test system: SK-MEL-2 melanoma

CCSc1ncc(Br)c(Sc2nc(N)nc3nc[nH]c23)n1
64.9 µM: TGI [48]
23.4 µM: TGI [50]
67 µM: TGI [55]
30.5 µM: TGI [20]
24.4 µM: TGI [7]
49.8 µM: TGI [9]
30 µM: TGI [54]
80.3 µM: TGI [38]
60.9 µM: TGI [51]
> 100 µM: TGI [1] | TGI [2] | TGI [3] | TGI [4] | TGI [5] | TGI [6] | TGI [10] | TGI [12] | TGI [14] | TGI [15] | TGI [17] | TGI [18] | TGI [19] | TGI [21] | TGI [23] | TGI [24] | TGI [25] | TGI [26] | TGI [27] | TGI [30] | TGI [31] | TGI [32] | TGI [33] | TGI [35] | TGI [39] | TGI [40] | TGI [42] | TGI [43] | TGI [45] | TGI [46] | TGI [47] | TGI [49] | TGI [52] | TGI [53] | TGI [56] | TGI [57]
20.4 µM: TGI [36]
34.3 µM: TGI [41]
25.9 µM: TGI [29]
43.4 µM: TGI [8]
inactive: GI50 [1] 3.22 µM | GI50 [2] 5.37 µM | GI50 [3] 3 µM | GI50 [4] 2.8 µM | GI50 [5] 3.48 µM | GI50 [6] 3.43 µM | GI50 [7] 1.64 µM | GI50 [8] 1.97 µM | GI50 [9] 3.8 µM | GI50 [10] 5.83 µM | GI50 [11] 3.52 µM | GI50 [12] 1.83 µM | GI50 [13] 2.76 µM | GI50 [14] 2.86 µM | GI50 [15] 3.07 µM | GI50 [16] 2.78 µM | GI50 [17] 46.9 µM | GI50 [18] 4.07 µM | GI50 [19] 10.1 µM | GI50 [20] 2.29 µM | GI50 [21] 4.77 µM | GI50 [22] 2.55 µM | GI50 [23] 12.4 µM | GI50 [24] 3.87 µM | GI50 [25] 1.82 µM | GI50 [26] 3.04 µM | GI50 [27] 2.3 µM | GI50 [28] 19.8 µM | GI50 [29] 2.55 µM | GI50 [30] 4.54 µM | GI50 [31] 7.47 µM | GI50 [32] 2.39 µM | GI50 [33] 3.72 µM | GI50 [34] 1.79 µM | GI50 [35] 18.1 µM | GI50 [36] 2.37 µM | GI50 [37] 15.1 µM | GI50 [38] 5.74 µM | GI50 [39] 3.4 µM | GI50 [40] 2.69 µM | GI50 [41] 1.25 µM | GI50 [42] 17.7 µM | GI50 [43] 3.11 µM | GI50 [44] 1.57 µM | GI50 [45] 21 µM | GI50 [46] 6.58 µM | GI50 [47] 3.42 µM | GI50 [48] 3.18 µM | GI50 [49] 2.59 µM | GI50 [50] 3.08 µM | GI50 [51] 2.95 µM | GI50 [52] 4.52 µM | GI50 [53] > 100 µM | GI50 [54] 2.7 µM | GI50 [55] 4.11 µM | GI50 [56] 7.05 µM | GI50 [57] 4.19 µM
52.6 µM: TGI [37]
25 µM: TGI [22]
8.68 µM: TGI [34]
48.9 µM: TGI [13]
32.2 µM: TGI [16]
14 µM: TGI [44]
31.5 µM: TGI [11]
88.6 µM: TGI [28]
